Results published in patent US20060069038A1, “Irreversible caspase-3 inhibitors as active site probes” (priority 2003, published 2006).

Assays:
[1] = target: T1, purified recombinant human caspase-3 (Homo sapiens, UniProt P42574); assay: Direct [125I]-M808 labeling of purified recombinant human caspase-3; type: binding; conditions: FIG. 2A lane 1
T1 construct: Active site shared between large and small caspase subunit
T1 sequence (P42574 29-175 limits assumed): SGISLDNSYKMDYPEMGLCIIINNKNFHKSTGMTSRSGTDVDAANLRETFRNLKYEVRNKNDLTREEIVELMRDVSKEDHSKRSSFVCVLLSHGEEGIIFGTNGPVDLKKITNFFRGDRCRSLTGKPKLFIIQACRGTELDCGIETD
T1 sequence (P42574 176-277 limits assumed): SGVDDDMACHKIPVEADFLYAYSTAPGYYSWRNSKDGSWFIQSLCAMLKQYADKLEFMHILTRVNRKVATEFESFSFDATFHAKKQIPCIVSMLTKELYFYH
Procedure: The determination of caspase activity by [^125I]-M808 labeling was performed by pre-incubating purified recombinant human caspase-3 with indicated amounts of caspase inhibitor (M791) or vehicle (DMSO), for 1 hour at 25° C. in ICE buffer III (50 mM Hepes-KOH pH 7.0, 0.1% CHAPS, 10% sucrose, 2 mM EDTA), supplemented with 5 mM DTT. [^125I]-M808 was added to a final concentration of 1.25 μM and incubated for 5 min at 25° C. Active caspases in tissue or cell extracts were labeled by incubating 60-80 μg of lysate with [^125I]-M808 for 15 minutes at 25° C. Labeling was stopped by addition of Laemli buffer (2% SDS; 0.35 M O-mercaptoethanol; 50 mM Tris-Cl pH 6.8; 10% glycerol; 0.05% bromophenol blue) and by heating at 95° C. for 5 minutes. Caspase labeling in whole cells was performed as following. NT2 cells were plated in 24-well dishes (50 000 cells/well) in DMEM+10% FBS. The next day, media was replaced by media containing camptothecin (5 μg/ml) and the indicated amounts of caspase inhibitors. The culture media was removed after 5 hours of incubation and replaced by 100 μl of fresh media containing 12.5 nM [^125]-M808. After a 1 h incubation at 37° C., the media was removed, the cells were washed once with PBS and lysed in lysis buffer+25 μM M808. Cellular debris was removed by centrifugation at 13000 rpm for 10 min and boiled at 95° C. in Laemli buffer. […]

spectrin cleavage = assay: Spectrin cleavage in cultured thymocytes; type: cell-based; conditions: Rattus norvegicus, Thymocyte, N. Methot et al., in press, read-out: IC50, inhibition of spectrin cleavage

labeling of p17 subunit of caspase-3 [1] | IC50 (spectrin cleavage) | Structure (SMILES)
covalently bound | – | COc1ccc(I)cc1CC(=O)N[C@H](C(=O)NC(CC(=O)O)C(=O)CF)C(C)C (stereo partly drawn) [[^125I]-M808, 5-fluoro-3-({N-[(5-iodo-2-methoxyphenyl)acetyl]-L-valyl}amino)-4-oxopentanoic acid]
– | 90 nM | CCCCCN(C)CC(=O)[C@H](CC(=O)O)NC(=O)[C@H](CC)n1cc(C(C)(C)C)nc(NCc2nonc2C)c1=O [Example M867, (3S)-3-({(2S)-2-[5-tert-butyl-3-{[(4-methyl-1,2,5-oxadiazol-3-yl)methyl]amino}-2-oxopyrazin-1(2H)-yl]butanoyl}amino)-5-[methyl(pentyl)amino]-4-oxopentanoic acid]
